The target of this experiment is T1, human cathepsin K (Homo sapiens, UniProt P43235).
T1 construct: The proform of cathepsin K was converted to mature cathepsin K by brief exposure to pH 4; made in house; host or cells: baculovirus; Trichoplusia ni High Five cells (virus raised in Sf-9)
T1 sequence (P43235 115-329): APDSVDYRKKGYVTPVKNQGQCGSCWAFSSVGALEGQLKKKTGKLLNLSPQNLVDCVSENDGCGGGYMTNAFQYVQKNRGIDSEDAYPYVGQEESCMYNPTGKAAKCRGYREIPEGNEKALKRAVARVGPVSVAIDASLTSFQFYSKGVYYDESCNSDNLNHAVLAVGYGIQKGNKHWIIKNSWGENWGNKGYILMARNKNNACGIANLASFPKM
Description: Cathepsin K inhibition assay, fluorogenic substrate Cbz-Phe-Arg-AMC, progress curve method. It is filed as biochemical. As to conditions: Table 1; human recombinant enzyme, pH 5.5, 30° C., 10 μM substrate; read-out: hCat K Ki. The procedure: All assays for cathepsin K were carried out with human and rat recombinant enzyme. Assays for cathepsins S Et V were also carried out with human recombinant enzyme. Assays for human cathepsins B. H. and L were carried out with enzyme, purchased from Athens Research and Technology, Inc., prepared from human liver tissue. […] A stock substrate solution of Cbz-Phe-Arg-AMC was prepared at a concentration of 50 mM in dimethyl sulfoxide. This substrate was diluted into the assay for a final substrate concentration of 10 μM in the rat cathepsin K, human cathepsin K, and human cathepsin B assays; a final substrate concentration of 5 μM in the human cathepsin L assay; and a final substrate concentration of 2 μM in the human cathepsin V assay.
All assays contained 10% dimethyl sulfoxide. […] All assays were conducted at 30° C. Product fluorescence (excitation at 360 nm; emission at 440 nm, (except cathepsin H which used excitation at 340 nm; emission at 420 nm)) was monitored with a PerSeptive Biosystems Cytofluor II fluorescence plate reader. Product progress curves were generated over 2.3 h monitoring the formation of 7-amino-4-methylcoumarin product (or β-naphthalamide for cathepsin H).
Two liters of Spodoptera frugiperda (Sf-9) cells (ATCC) were grown in Grace's Supplemented medium (Life Technologies) supplemented with 2 g/L glucose, 10% a fetal bovine serum (HyClone) and 0.10% pluronic F-68 (Life Technologies). […] The cells continued to grow for 72 h post-infection, before the virus was harvested by centrifugation at 1400× g for 30 min.
One and one-half liters of Trichoplusia ni (T. ni) High Five (TM) cells [JRH Biosciences, Woodland, Calif. […] Media were separated from cells at a rate of 1 L/min using the Centritech 100 (TM) continuous-flow centrifuge (DuPont) operating at 200× g.
Protein Purification: Media (human and rat) were filtered through a Whatman 3 filter, and then loaded onto a 25 mL Poros HS II (26 mm×47 mm) cation exchange column equilibrated in 25 mM sodium acetate at pH 5.5 (equilibration buffer). The column was washed until the absorbance reached the baseline value, and then the protein was eluted with a linear gradient from 0-2 M sodium chloride in the equilibration buffer. Column fractions were analyzed by SDS-PAGE, N-terminal sequencing, and mass spectrometry. Fractions containing the proform of cathepsin K were pooled and frozen at −80° C. The proform was concentrated in an Amicon Centriprep 10 and fractionated with a Superdex 75 column (26 mm×600 mm, Pharmacia) equilibrated in 400 mM sodium chloride, 25 mM sodium acetate at pH 5.5.
Cathepsin K Activation: The proform of cathepsin K was converted to mature cathepsin K by brief exposure to pH 4 in the presence of 5 mM L-cysteine. Typically, 5 mM L-cysteine was added to 10 mL of approximately 1 mg/mL procathepsin K. One mL of this solution was diluted ten-fold into 450 mM sodium acetate at pH 4.0 containing 5 mM L-cysteine. This solution was reacted at 23° C. for 2 min before neutralization with 2 mL 1.8 M sodium acetate at pH 6.0. The neutralized sample was added to the remaining 9 mL of procathepsin K. The mixture was incubated at 4° C. for 2-3 days. The activated cathepsin K was chromatographed on a Poros HS II column as described above.
Potential inhibitors were evaluated using the progress curve method. Assays were carried out in the presence of variable concentrations of test compound. Reactions were initiated by addition of buffered solutions of inhibitor and substrate to enzyme. Data analysis was conducted according to one of two procedures depending on the appearance of the progress curves in the presence of inhibitors. […] Ki values were calculated from IC50 values using equation 2 assuming a competitive model. [formula]

This is an account of results in patent US20050107616A1, “Alpha-ketoamide derivatives as cathepsin k inhibitors” (priority 2001, published 2005).

Each structure is given as a SMILES string.

By Ki is commonly meant a dissociation constant, usually derived from enzyme kinetics or from competition with a known ligand. Regarding `CCCC[C@H](NC(=O)O[C@H](c1nnc(-c2ccncc2)o1)C(C)(C)C)C(=O)C(=O)Nc1ccn[nH]1` [Example 54, (1S)-2,2-dimethyl-1-[5-(4-pyridinyl)-1,3,4-oxadiazol-2-yl]propyl(1S)-1-[oxo(1H-pyrazol-5-ylamino)acetyl]pentylcarbamate], the Ki lay within 0.01 to 1 nM. The value for `CCCC[C@H](NC(=O)O[C@H](Cc1nnc(-c2ccc(F)cc2)o1)C(C)(C)C)C(=O)C(=O)N[C@H]1CCCNC1=O` [Example 25] was 0.01 to 1 nM. For `CCCC[C@H](NC(=O)O[C@H](CCc1nnc(-c2ccc(C(F)(F)F)cc2)o1)C(C)(C)C)C(=O)C(=O)Nc1ccn[nH]1` [Example 26, (1R)-2,2-dimethyl-1-(2-{5-[4-(trifluoromethyl)phenyl]-1,3,4-oxadiazol-2-yl}ethyl)propyl(1S)-1-[oxo(1H-pyrazol-5-ylamino)acetyl]pentylcarbamate] the value was 0.01 to 1 nM; for `CCCC[C@H](NC(=O)O[C@@H](c1nnc(-c2ccc(C(F)(F)F)cc2)o1)C(C)(C)C)C(=O)C(=O)Nc1ccn[nH]1` [Example 40, (1R)-2,2-dimethyl-1-{5-[4-(trifluoromethyl)phenyl]-1,3,4-oxadiazol-2-yl}propyl(1S)-1-[oxo(1H-pyrazol-5-ylamino)acetyl]pentylcarbamate], 100 to 10000 nM. For `CCCC[C@H](NC(=O)O[C@H](Cc1nnc(-c2ccc(C(F)(F)F)cc2)o1)C(C)(C)C)C(=O)C(=O)NN1CCOC1=O` [Example 28, (1R)-2,2-dimethyl-1-({5-[4-(trifluoromethyl)phenyl]-1,3,4-oxadiazol-2-yl}methyl)propyl(1S)-1-{oxo[(2-oxo-1,3-oxazolidin-3-yl)amino]acetyl}pentyl carbamate] the value was 0.01 to 1 nM. On to `CCCC[C@H](NC(=O)O[C@@H](Cn1cnc(-c2ccccc2)c1)C(C)(C)C)C(=O)C(=O)N[C@H](C)c1ccccc1` [Example 13, (1R)-2,2-dimethyl-1-[(4-phenyl-1H-imidazol-1-yl)methyl]propyl(1S)-1-(oxo{[(1R)-1-phenylethyl]amino}acetyl)pentylcarbamate], for which the inhibition constant (Ki) lay in the range of 100 to 10000 nM. As for `CCCC[C@H](NC(=O)O[C@H](Cn1cnc2ccccc21)C(C)(C)C)C(=O)C(=O)Nc1ccn[nH]1` [Example 27, (1S)-1-(1H-benzimidazol-1-ylmethyl)-2,2-dimethylpropyl(1S)-1-[oxo(1H-pyrazol-5-ylamino)acetyl]pentylcarbamate], the Ki fell in the range of 0.01 to 1 nM. The value for `CCCC[C@H](NC(=O)O[C@@H](Cn1ccc(-c2ccc(C(F)(F)F)cc2)n1)C(C)(C)C)C(=O)C(=O)Nc1ccn[nH]1` [Example 2, (1R)-2,2-dimethyl-1-({3-[4-(trifluoromethyl)phenyl]-1H-pyrazol-1-yl}methyl)propyl(1S)-1-[oxo(1H-pyrazol-3-ylamino)acetyl]pentylcarbamate] was 1 to 100 nM; that for `CCCC[C@H](NC(=O)O[C@@H](c1nnc(-c2cccnc2)o1)C(C)(C)C)C(=O)C(=O)Nc1ccn[nH]1` [Example 53, (1R)-2,2-dimethyl-1-[5-(3-pyridinyl)-1,3,4-oxadiazol-2-yl]propyl(1S)-1-[oxo(1H-pyrazol-5-ylamino)acetyl]pentylcarbamate] was 1 to 100 nM; that for `CCCC[C@H](NC(=O)O[C@H](c1cccc(-c2ccccc2)c1)C(C)(C)C)C(=O)C(=O)Nc1ccn[nH]1` [Example 42, (1S)-1-[1,1′-biphenyl]-3-yl-2,2-dimethylpropyl(1S)-1-[oxo(1H-pyrazol-5-ylamino)acetyl]pentylcarbamate] was 0.01 to 1 nM. On to `CCCC[C@H](NC(=O)O[C@H](COc1ccc(-n2ccnc2)cc1)C(C)(C)C)C(=O)C(=O)Nc1ccn[nH]1` [Example 49, (1S)-1-{[4-(1H-imidazol-1-yl)phenoxy]methyl}-2,2-dimethylpropyl(1S)-1-[oxo(1H-pyrazol-5-ylamino)acetyl]pentylcarbamate], for which the Ki is 0.01 to 1 nM. For `CCCC[C@H](NC(=O)O[C@@H](Cc1nnc(-c2ccccc2)o1)C(C)(C)C)C(=O)C(=O)N[C@H](C)c1ccccc1` [Example 16, (1S)-2,2-dimethyl-1-[(5-phenyl-1,3,4-oxadiazol-2-yl)methyl]propyl (1S)-1-(oxo{[(1R)-1-phenylethyl]amino}acetyl)pentylcarbamate], the Ki lay within 100 to 10000 nM. As for `CCCC[C@H](NC(=O)O[C@H](c1nnc(-c2cccnc2)o1)C(C)(C)C)C(=O)C(=O)Nc1ccn[nH]1` [Example 52, (1S)-2,2-dimethyl-1-[5-(3-pyridinyl)-1,3,4-oxadiazol-2-yl]propyl(1S)-1-[oxo(1H-pyrazol-5-ylamino)acetyl]pentylcarbamate], the Ki lay in the range of 0.01 to 1 nM. Consider `CCCC[C@H](NC(=O)O[C@@H](Cc1nnc(-c2ccccc2)o1)C(C)C)C(=O)C(=O)N[C@H](C)c1ccccc1` [Example 11, (1S)-2-methyl-1-[(5-phenyl-1,3,4-oxadiazol-2-yl)methyl]propyl(1S)-1-(oxo{[(1R)-1-phenylethyl]amino}acetyl)pentylcarbamate], for which the Ki lay within 100 to 10000 nM. For `CCCC[C@H](NC(=O)O[C@@H](c1nc2ccccc2s1)C(C)(C)C)C(=O)C(=O)Nc1ccn[nH]1` [Example 32, (1R)-1-(1,3-benzothiazol-2-yl)-2,2-dimethylpropyl(1S)-1-[oxo(1H-pyrazol-5-ylamino)acetyl]pentylcarbamate], the Ki lay within 100 to 10000 nM.

As to `CCCC[C@H](NC(=O)O[C@H](Cn1cnc(Cc2ccccc2)c1)C(C)(C)C)C(=O)C(=O)Nc1ccn[nH]1` [Example 34, (1S)-1-[(4-benzyl-1H-imidazol-1-yl)methyl]-2,2-dimethylpropyl(1S)-1-[oxo(1H-pyrazol-5-ylamino)acetyl]pentylcarbamate], the Ki lay within 0.01 to 1 nM. For `CCCC[C@H](NC(=O)O[C@H](Cn1ccc(C(F)(F)F)n1)C(C)(C)C)C(=O)C(=O)Nc1ccn[nH]1` [Example 29, (1S)-2,2-dimethyl-1-{[3-(trifluoromethyl)-1H-pyrazol-1-yl]methyl}propyl(1S)-1-[oxo(1H-pyrazol-5-ylamino)acetyl]pentylcarbamate] the value was 0.01 to 1 nM; for `CCCC[C@H](NC(=O)O[C@H](Cc1nnc(-c2ccc(F)cc2)o1)C(C)(C)C)C(=O)C(=O)N[C@H](C)c1ccccc1` [Example 19, (1R)-1-{[5-(4-fluorophenyl)-1,3,4-oxadiazol-2-yl]methyl}-2,2-dimethylpropyl(1S)-1-(oxo{[(1R)-1-phenylethyl]amino}acetyl)pentylcarbamate], 0.01 to 1 nM. Regarding `CCCC[C@H](NC(=O)O[C@H](Cc1nnc(-c2ccccc2)o1)C(C)(C)C)C(=O)C(=O)N[C@H](C)c1ccccc1` [Example 15, (1R)-2,2-dimethyl-1-[(5-phenyl-1,3,4-oxadiazol-2-yl)methyl]propyl(1S)-1-(oxo{[(1R)-1-phenylethyl]amino}acetyl)pentylcarbamate], the Ki was in the range of 0.01 to 1 nM. As to `CCCC[C@H](NC(=O)O[C@H](COc1ccc(OCc2ccccc2)cc1)C(C)(C)C)C(=O)C(=O)Nc1ccn[nH]1` [Example 47, (1S)-1-{[4-(benzyloxy)phenoxy]methyl}-2,2-dimethylpropyl(1S)-1-[oxo(1H-pyrazol-5-ylamino)acetyl]pentylcarbamate], the Ki is 0.01 to 1 nM. For `CCCC[C@H](NC(=O)O[C@H](Cn1ccc(-c2cccnc2)n1)C(C)(C)C)C(=O)C(=O)Nc1nccs1` [Example 33, (1S)-2,2-dimethyl-1-{[3-(3-pyridinyl)-1H-pyrazol-1-yl]methyl}propyl(1S)-1-[oxo(1,3-thiazol-2-ylamino)acetyl]pentylcarbamate] the value was 0.01 to 1 nM.
